Test results from patent US20260373148A1, “5-FLUOROURACIL DERIVATIVE AND ANTI-TUMOR USE THEREOF” (SICHUAN UNIVERSITY, priority 2023, published 2026).
Entries after “also recorded” stand apart in the source; their conditions may differ.

Experiments:
Cal27 cells = assay: Inhibition of proliferation of Cal27 squamous cell carcinoma cells (CCK-8 assay); format: cell-based; settings: Homo sapiens, CAL-27, 48 hours, 0, 1.25, 2.5, 5, 10 μM, read-out: IC50 values against Cal27 cells
Protocol: (§1) Squamous cell carcinoma cell lines: HN30, HN12, Cal-27, HSC-3.
(§2) Test compounds: Compounds 3a, 3b, 3c; Compound 1 (i.e., 5-fluorouracil).
(§3) The experimental procedure was as follows: All four tumor cell lines were cultured in a standardized incubator at 37 °C with 5% CO2. Cells in logarithmic growth phase were digested, counted, and seeded onto 96-well plates at 3000 cells/well. They were then cultured overnight in the incubator. The test compounds were prepared into a stock solution with DMSO at a concentration of 10 mM, and were diluted sequentially (0, 1.25, 2.5, 5, 10 μM) before treating the cells. The control group was treated with the highest concentration of DMSO. The cells were cultured for additional 48 hours in the incubator, and the effect of each compound on the proliferation of the four tumor cell lines was assessed using CCK-8 assay. Meanwhile, the experimental results of compound 3a and compound 1 were analyzed to obtain their IC50 values, and the effects of both compounds on tumor cell proliferation were compared.

[1] = tested on: squamous cell carcinoma cells HN30, HN12, Cal-27, and HSC-3; assay: Inhibitory effect of compounds on the proliferation of squamous cell carcinoma cells HN30, HN12, Cal-27, HSC-3 (CCK-8 assay); format: cell-based; settings: in words, 48 hours; for inhibitory effect on the proliferation of tumor cells: HN30, HN12, Cal-27, HSC-3, 0, 1.25, 2.5, 5, 10 μM
Protocol: as §1, §2, §3

OSCC cells = settings: in words; Heilongjiang Medicine and Pharmacy, February 2009; cited from earlier work
HN30 cells = assay: Inhibition of proliferation of HN30 squamous cell carcinoma cells (CCK-8 assay); format: cell-based; settings: 48 hours, 0, 1.25, 2.5, 5, 10 μM, read-out: IC50 values against HN30 cells
Protocol: as §1, §2, §3

SMILES	IC50 (Cal27 cells) [µM]	inhibitory effect on the proliferation of tumor cells [1]	induction of apoptosis in OSCC cells (OSCC cells)	IC50 (HN30 cells) [µM]	IC50 value compared with compound 1 ([1]; compound 3a versus compound 1, FIGS. 2 and 3 (HN30 and Cal27))
O=c1[nH]cc(F)c(=O)[nH]1 [Compound 1, 5-fluorouracil]	22.8	higher anti-tumor activity in a higher concentration range	can induce apoptosis in OSCC cells	21.7	–
O=C(CCn1cc(F)c(=O)n(CCC(=O)Nc2ccc(C34CC5CC(CC(C5)C3)C4)cc2)c1=O)Nc1ccc(C23CC4CC(CC(C4)C2)C3)cc1 [Compound 3a]	6.54	significantly better inhibitory effect than 5-fluorouracil; also recorded: significantly higher than that of compounds 1, 3b, and 3c; also recorded: significantly better than that of 5-fluorouracil	–	7.09	significantly lower than that of compound 1
O=C(CCn1cc(F)c(=O)[nH]c1=O)Nc1ccc(C23CC4CC(CC(C4)C2)C3)cc1 [Compound 3b]	–	did not show significant improvement	–	–	–
O=C(CCn1c(=O)[nH]cc(F)c1=O)Nc1ccc(C23CC4CC(CC(C4)C2)C3)cc1 [Compound 3c]	–	did not show significant improvement	–	–	–
